How the values were obtained:
GluN1/GluN2A^P178G = biological target: T1, GluN1/GluN2A^P178G (Rattus norvegicus, UniProt P35439+Q00959, P178G); experiment: Patch clamp in HEK293 cells expressing mutant GluN1/GluN2A P178G; format: cell-based
T1 construct: expressed in transfected cells; host or cells: HEK293
Protocol: (§1) Whole cell patch-clamp recordings were performed under voltage-clamp mode using an Axopatch 200B or 1D patch-clamp amplifier (Molecular Devices). Whole-cell currents were recorded at a holding potential of −60 mV unless indicated elsewhere, and signals were filtered at 2 kHz, digitized at 10 kHz (Digidata 1322A). Recording pipettes (3-5 MΩ) were filled with intracellular solution containing (mM): CsCl 140, HEPES 10, Mg-ATP 4, QX-314 5, pH 7.20; osmolarity, 290-295 mOsm. BAPTA (10 mM) was added in the intracellular solution (unless otherwise specified). The coverslips were continuously superfused with extracellular solution containing (mM): NaCl 140, KCl 5.4, HEPES 10, CaCl2 1.3, glucose 20, pH 7.4; osmolarity, 305-315 mOsm. NMDA-induced currents were applied by NMDA through perfusion fast-step (Warner Instruments). With perfusion fast-step system, NMDA application was achieved by using a two-square barrel glass tubing and depending on the age of the cultured neurons, CNQX (10 μM), TTX (0.5 μM) or BIC (10 μM) were added in the extracellular solution to minimize the activation of ionotropic glutamate receptors and voltage-gated sodium channels, respectively. All experiments were performed at room temperature. Recordings from at least six HEK293 cells/neurons were performed for all active compounds. […]

GluN1/GluN2A^F115S = biological target: T2, GluN1/GluN2A^F115S (Rattus norvegicus, UniProt P35439+Q00959, F115S); experiment: Patch clamp in HEK293 cells expressing mutant GluN1/GluN2A F115S; format: cell-based
T2 construct: expressed in transfected cells; host or cells: HEK293
Protocol: as §1

[1] = test system: post-stroke locomotory behavior; experiment: Neurological behavioral tests after stroke; format: in vivo, rat; conditions: 28 days after stroke onset, versus untreated control rats
Protocol: To assess functional recovery of neural circuits damaged by ischemic insult, three locomotor activity (sensorimotor) deficit modalities were tested: 1) vertical activity (the total number of beam interruptions that occurred in the vertical sensor); 2) number of vertical movements (number of animal rears); and 3) vertical movement time (the amount of time, in seconds, the animal rears) using the VersaMax Animal Activity Monitor (Accuscan Instruments). An ischemic rat was placed into the recording chamber during the ‘dark’ phase of the day/night cycle, and vertical movement time (seconds) was automatically recorded by computer over a 2 h period. The total length of vertical movement represents the recovery of locomotor circuits injured by ischemic stroke.
Neurobehavioral assays were performed to assess functional recovery of neurons post-stroke.

[2] = biological target: T3, GluN2A NMDARs in GluN2B-lacking neurons (Mus musculus, UniProt P35436+P35438); experiment: Whole-cell recordings in GluN2B-knockout cortical neurons; format: cell-based; conditions: compared to NMDA control
T3 construct: endogenous in cells; host or cells: primary cortical neurons from GluN2B-knockout mouse embryos

GABAR = experiment: GABA-induced currents in cultured hippocampal neurons; format: cell-based
Protocol: Whole cell patch-clamp recordings were performed under voltage-clamp mode using an Axopatch 200B or 1D patch-clamp amplifier (Molecular Devices). Whole-cell currents were recorded at a holding potential of −60 mV unless indicated elsewhere, and signals were filtered at 2 kHz, digitized at 10 kHz (Digidata 1322A). Recording pipettes (3-5 MΩ) were filled with the intracellular solution that contained (mM): CsCl 140, HEPES 10, Mg-ATP 4, QX-314 5, pH 7.20; osmolarity, 290-295 mOsm. BAPTA (10 mM) was added in the intracellular solution (otherwise specified). The coverslips were continuously superfused with the extracellular solution containing (mM): NaCl 140, KCl 5.4, HEPES 10, CaCl2 1.3, glucose 20, pH 7.4; osmolarity, 305-315 mOsm. NMDA, GABA or AMPA induced currents were either applied by NMDA, GABA, AMPA either through perfusion fast-step (Warner Instruments). […]
Next, the inventor evaluated the selectivity profile for Npam02 on two other key ionotropic receptors of the central nervous system (CNS): α-amino-3-hydroxy-5-methyl-4-isoxazolepropionic acid receptor AMPAR, which are known to be a non-NMDA type ionotropic transmembrane receptor for glutamate that mediates fast synaptic transmission in the central nervous system (CNS) and GABA receptors which are the principal inhibitory ligand-gated ion channel receptor. […]

T2 sequence (Q00959 23-1464 F115S, other chains not shown): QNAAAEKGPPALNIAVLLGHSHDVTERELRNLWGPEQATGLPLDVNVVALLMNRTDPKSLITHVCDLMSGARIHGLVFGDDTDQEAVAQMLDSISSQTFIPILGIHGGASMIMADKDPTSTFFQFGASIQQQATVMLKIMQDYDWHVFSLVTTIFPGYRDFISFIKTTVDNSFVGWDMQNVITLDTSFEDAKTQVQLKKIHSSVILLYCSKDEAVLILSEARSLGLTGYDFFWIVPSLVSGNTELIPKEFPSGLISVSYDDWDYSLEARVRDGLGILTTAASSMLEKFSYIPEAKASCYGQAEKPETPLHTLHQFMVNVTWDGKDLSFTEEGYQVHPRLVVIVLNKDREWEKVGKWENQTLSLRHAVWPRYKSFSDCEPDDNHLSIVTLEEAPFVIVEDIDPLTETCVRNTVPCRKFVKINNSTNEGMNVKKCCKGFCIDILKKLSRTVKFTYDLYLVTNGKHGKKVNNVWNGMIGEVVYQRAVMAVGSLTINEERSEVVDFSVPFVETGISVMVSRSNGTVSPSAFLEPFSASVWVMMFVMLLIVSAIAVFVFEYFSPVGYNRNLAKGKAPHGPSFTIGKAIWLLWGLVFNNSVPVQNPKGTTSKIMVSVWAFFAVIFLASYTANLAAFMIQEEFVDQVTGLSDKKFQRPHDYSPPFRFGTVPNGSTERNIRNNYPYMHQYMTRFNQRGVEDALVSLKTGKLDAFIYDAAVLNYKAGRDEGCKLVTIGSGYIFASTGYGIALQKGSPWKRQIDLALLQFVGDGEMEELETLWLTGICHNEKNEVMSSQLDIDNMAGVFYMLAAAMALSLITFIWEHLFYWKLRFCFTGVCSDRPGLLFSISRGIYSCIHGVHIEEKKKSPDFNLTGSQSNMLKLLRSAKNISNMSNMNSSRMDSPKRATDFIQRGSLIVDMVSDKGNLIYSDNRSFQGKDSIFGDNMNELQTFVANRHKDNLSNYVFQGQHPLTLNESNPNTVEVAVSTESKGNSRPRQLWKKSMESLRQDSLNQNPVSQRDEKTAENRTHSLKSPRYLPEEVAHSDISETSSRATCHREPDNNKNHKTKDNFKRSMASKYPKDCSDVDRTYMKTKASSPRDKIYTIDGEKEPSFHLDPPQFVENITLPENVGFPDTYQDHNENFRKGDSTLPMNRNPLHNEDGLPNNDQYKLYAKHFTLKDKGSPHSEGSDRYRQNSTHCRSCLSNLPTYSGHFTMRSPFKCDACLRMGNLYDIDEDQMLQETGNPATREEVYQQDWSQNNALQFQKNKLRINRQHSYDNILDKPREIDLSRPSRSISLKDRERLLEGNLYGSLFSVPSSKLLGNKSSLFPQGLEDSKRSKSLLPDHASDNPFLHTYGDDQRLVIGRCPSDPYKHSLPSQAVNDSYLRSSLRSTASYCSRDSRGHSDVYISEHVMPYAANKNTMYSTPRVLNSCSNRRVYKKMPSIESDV
T3 sequence (P35436 23-1464, other chains not shown): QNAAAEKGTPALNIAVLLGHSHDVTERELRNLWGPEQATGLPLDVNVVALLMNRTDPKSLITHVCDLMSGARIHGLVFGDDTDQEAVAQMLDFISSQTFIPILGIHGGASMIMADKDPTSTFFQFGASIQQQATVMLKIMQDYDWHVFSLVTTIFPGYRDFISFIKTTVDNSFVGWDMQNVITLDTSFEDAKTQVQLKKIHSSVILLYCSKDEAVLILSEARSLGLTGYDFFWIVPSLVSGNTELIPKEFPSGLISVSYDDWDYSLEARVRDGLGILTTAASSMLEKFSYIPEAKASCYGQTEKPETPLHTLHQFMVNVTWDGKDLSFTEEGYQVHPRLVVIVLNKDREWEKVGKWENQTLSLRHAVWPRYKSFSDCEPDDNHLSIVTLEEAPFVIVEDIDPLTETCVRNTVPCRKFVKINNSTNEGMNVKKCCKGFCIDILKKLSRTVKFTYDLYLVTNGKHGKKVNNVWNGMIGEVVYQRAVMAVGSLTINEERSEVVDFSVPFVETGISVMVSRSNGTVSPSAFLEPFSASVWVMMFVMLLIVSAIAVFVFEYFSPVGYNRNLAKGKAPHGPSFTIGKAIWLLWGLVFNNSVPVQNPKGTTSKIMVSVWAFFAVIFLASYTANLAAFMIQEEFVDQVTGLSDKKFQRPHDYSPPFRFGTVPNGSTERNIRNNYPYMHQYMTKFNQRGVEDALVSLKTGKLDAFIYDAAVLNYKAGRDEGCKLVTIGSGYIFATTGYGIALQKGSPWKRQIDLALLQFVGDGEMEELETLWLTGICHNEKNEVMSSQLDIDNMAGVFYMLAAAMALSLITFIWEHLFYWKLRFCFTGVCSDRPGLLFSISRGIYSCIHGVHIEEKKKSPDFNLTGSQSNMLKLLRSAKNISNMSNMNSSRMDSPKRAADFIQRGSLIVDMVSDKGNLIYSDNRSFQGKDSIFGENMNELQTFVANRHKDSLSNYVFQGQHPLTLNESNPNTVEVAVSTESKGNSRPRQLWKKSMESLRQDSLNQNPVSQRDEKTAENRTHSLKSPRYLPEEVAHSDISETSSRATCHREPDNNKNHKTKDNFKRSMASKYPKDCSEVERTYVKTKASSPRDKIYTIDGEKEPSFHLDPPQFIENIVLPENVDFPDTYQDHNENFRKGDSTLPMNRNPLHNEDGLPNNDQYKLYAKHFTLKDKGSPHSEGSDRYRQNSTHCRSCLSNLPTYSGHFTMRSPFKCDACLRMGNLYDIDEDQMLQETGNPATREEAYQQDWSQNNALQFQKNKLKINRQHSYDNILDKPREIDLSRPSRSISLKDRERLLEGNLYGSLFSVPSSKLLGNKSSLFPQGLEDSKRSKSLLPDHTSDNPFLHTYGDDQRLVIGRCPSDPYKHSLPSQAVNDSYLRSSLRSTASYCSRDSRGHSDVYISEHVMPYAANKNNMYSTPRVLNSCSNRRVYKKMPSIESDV
T1 sequence (Q00959 23-1464 P178G, other chains not shown): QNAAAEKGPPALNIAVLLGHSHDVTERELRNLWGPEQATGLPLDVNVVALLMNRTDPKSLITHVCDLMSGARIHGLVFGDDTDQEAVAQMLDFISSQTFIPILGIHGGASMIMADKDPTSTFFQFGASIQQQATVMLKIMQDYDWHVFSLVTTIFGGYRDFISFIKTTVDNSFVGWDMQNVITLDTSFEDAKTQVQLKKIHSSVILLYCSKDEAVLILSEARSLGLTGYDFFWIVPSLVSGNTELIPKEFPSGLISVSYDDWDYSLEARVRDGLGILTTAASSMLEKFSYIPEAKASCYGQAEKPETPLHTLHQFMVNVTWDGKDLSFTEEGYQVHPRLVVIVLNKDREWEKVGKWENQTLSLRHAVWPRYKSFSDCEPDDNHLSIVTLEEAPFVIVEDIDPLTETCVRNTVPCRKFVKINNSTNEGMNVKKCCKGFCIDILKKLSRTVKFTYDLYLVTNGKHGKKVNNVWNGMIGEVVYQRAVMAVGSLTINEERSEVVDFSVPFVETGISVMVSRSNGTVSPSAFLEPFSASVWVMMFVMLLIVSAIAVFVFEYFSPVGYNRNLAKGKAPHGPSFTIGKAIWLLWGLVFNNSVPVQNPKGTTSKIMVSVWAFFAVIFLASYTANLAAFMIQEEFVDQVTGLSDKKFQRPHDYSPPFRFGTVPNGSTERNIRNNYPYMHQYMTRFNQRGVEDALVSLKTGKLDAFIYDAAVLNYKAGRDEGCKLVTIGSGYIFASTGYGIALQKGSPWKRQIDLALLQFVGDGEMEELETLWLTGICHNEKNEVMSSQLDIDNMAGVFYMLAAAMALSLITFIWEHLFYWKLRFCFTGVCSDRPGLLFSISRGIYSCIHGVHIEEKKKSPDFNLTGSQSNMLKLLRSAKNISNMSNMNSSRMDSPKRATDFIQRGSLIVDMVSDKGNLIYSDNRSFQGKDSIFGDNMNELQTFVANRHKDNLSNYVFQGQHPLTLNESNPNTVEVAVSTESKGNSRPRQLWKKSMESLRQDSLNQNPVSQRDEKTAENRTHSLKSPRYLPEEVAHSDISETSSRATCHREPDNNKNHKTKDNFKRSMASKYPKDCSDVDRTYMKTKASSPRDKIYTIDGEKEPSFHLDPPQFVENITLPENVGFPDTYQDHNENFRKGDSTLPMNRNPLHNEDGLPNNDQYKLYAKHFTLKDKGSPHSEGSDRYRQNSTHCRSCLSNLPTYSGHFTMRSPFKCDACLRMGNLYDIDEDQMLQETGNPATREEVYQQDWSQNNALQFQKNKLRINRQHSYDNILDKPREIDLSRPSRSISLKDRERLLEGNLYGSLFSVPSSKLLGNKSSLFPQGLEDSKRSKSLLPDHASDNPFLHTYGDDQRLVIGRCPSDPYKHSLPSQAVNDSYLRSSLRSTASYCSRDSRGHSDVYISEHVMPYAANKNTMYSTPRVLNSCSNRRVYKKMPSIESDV

| Structure (SMILES) | Relative potentiation (GluN1/GluN2A^P178G; Table 3) | Net Difference potentiation (GluN1/GluN2A^P178G; normalized to wild-type) | Relative potentiation (GluN1/GluN2A^F115S; Table 3) | Net Difference potentiation (GluN1/GluN2A^F115S; normalized to wild-type) | Post-stroke locomotory behavior [1] | Positive modulation of NMDAR currents ([2]; 100 μM bath, NMDA 20 μM, glycine 2 μM) | Potentiation effect with co-applied ifenprodril (IF) ([2]; GluN2B-knockout neurons) | NMDAR current change with NVP-AAM007 (0.2 μM) and Npam02 ([2]; Npam02 100 μM) | Effect on GABAR mediated currents (GABAR) |
| --- | --- | --- | --- | --- | --- | --- | --- | --- | --- |
| CCOc1cc(Cl)c(Cl)c(/C=N/NC(=O)c2ccccc2Br)c1O [Npam43, (E)-2-bromo-N′-(2,3-dichloro-5-ethoxy-6-hydroxybenzylidene)benzohydrazide] | 95.5 ± 3.8% | −54.3 ± 0.42% | 68.1 ± 14.1% | −67.4±11.8% | increased post-stroke locomotory behavior |  |  |  |  |
| COc1cccc(/C=N/NC(=O)c2ccccc2C)c1O [Npam02, (E)-N′-(2-hydroxy-3-methoxybenzylidene)-2-methylbenzohydrazide] |  |  |  |  |  | 44.72±4.29% | 42.22±4.03% | 88.87±3.45% | no observable effects |
